Laboratory results published in ChEMBL document CHEMBL4024703, “Recent Progress in the Development of Transglutaminase 2 (TGase2) Inhibitors” (J Med Chem, 2017).
Each block holds one compound with its values, some of them ahead of it.

Assays:
[1] = molecular target: T1, Protein-glutamine gamma-glutamyltransferase (Homo sapiens, UniProt P21980); experiment: Inhibition of recombinant human TG2 by fluorescence assay
T1 sequence (P21980 whole entry): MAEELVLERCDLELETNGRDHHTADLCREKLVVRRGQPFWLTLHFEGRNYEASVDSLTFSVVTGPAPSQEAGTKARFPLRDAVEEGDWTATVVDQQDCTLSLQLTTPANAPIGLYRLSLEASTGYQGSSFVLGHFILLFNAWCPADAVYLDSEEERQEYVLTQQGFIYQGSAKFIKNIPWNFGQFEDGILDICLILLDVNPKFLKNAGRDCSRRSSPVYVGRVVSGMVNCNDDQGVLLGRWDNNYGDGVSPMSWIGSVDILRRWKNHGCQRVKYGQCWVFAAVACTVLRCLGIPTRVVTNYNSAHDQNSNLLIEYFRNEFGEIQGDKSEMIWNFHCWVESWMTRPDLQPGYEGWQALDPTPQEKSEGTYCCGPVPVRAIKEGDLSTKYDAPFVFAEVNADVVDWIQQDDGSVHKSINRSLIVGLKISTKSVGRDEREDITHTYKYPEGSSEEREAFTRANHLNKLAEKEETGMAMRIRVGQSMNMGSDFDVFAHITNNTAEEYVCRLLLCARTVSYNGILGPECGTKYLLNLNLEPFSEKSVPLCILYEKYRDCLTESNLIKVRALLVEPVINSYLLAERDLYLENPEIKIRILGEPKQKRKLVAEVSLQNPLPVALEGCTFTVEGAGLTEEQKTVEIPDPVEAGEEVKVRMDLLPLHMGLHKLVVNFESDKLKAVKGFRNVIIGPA

[2] = test system: Mus musculus; experiment: Antihypertensive activity in C57BL/6 mouse angiotensin 2-induced hypertensive nephrosclerosis model assessed as reduction in collagen deposition in blood vessels at 25 mg/kg/day administered sc with angiotensin 2 for 14 days by Sirius red/collagen staining based assay; format: functional; settings: C57BL/6, sc, 336 h
[3] = test system: Mus musculus; experiment: Antihypertensive activity in C57BL/6 mouse angiotensin 2-induced hypertensive nephrosclerosis model assessed as reduction in collagen deposition in kidney at 25 mg/kg/day administered sc with angiotensin 2 for 14 days by Sirius red/collagen staining based assay; format: functional; settings: C57BL/6, sc, 336 h
[4] = organism: Homo sapiens; experiment: Selectivity ratio of IC50 for human TG1 to IC50 for human TG2
[5] = organism: Homo sapiens; experiment: Selectivity ratio of IC50 for human TG6 to IC50 for human TG2
[6] = organism: Homo sapiens; experiment: Selectivity ratio of IC50 for human TG3 to IC50 for human TG2
[7] = organism: Homo sapiens; experiment: Selectivity ratio of IC50 for human F13a to IC50 for human TG2
[8] = Metabolic stability in Wistar rat blood plasma after 15 mins by HPLC analysis; format: ADME, cell-free; settings: read-out: Stability
[9] = Metabolic stability in Wistar rat blood plasma after 45 mins by HPLC analysis; format: ADME, cell-free; settings: read-out: Stability

IC50 [1]: 6 nM
SMILES: C=CC(=O)NCC(=O)N1CCN(S(=O)(=O)c2cccc3c(N(C)C)cccc23)CC1
inhibition in vivo at 25 mg/kg/day [2]: 45% | inhibition in vivo at 25 mg/kg/day [3]: 40%

Ratio IC50 [4]: > 100 | Ratio IC50 [5]: > 100 | Ratio IC50 [6]: > 100 | Ratio IC50 [7]: > 100
SMILES: CCC(CC)CNC(=O)Cn1cccc(NC(=O)[C@H](CC/C=C/C(=O)OC)NC(=O)c2cncn2C)c1=O

remaining at 0.25 h [8]: 65% | remaining at 0.75 h [9]: 29%
SMILES: C=CC(=O)NCCCC[C@H](NC(=O)Cc1ccccc1)C(=O)N1CCN(c2cccc(C)n2)CC1
